Data: patent publication US10189873B2, “Compositions and methods for inhibiting “stimulator of interferon gene”-dependent signalling” (ADURO BIOTECH, INC., priority 2013, dated 2019)

Biological target: T1, human STING (Homo sapiens, UniProt Q86WV6, G230A/H232R/R293Q/R71H)
T1 construct: THP1-Blue™ ISG cells (a human monocyte cell line transfected with an IRF-inducible secreted embryonic alkaline phosphatase reporter gene); host or cells: THP1-Blue ISG cells (human monocyte cell line)
Experiment: Inhibition of ML RR-CDA-mediated induction of type I IFN in THP1-Blue ISG reporter cells (QUANTI-Blue, A655)
Assay type: cell-based
Description: To evaluate if the antagonist 2′-O-propargyl-cyclic-[A(2′,5′)pA(3′,5′)p] (ML-propargyl-CDA) can inhibit STING-dependent induction of type I interferon induction by Rp, Rp dithio cyclic [A(2′,5′)pA(3′,5′)p] (ML RR-CDA) in human cells, 4×10^5 THP1-Blue™ ISG cells (a human monocyte cell line transfected with an IRF-inducible secreted embryonic alkaline phosphatase reporter gene (Invivogen) which express alkaline phosphatase under the control of a promoter comprised of five IFN-stimulated response elements) were incubated with 50 μM of Rp, Rp dithio cyclic [A(2′,5′)pA(3′,5′)p] (ML RR-CDA), 10 μM or 50 μM of the antagonist 2′-O-propargyl-cyclic-[A(2′,5′)pA(3′,5′)p] (ML-propargyl-CDA), both 50 μM Rp, Rp dithio cyclic [A(2′,5′)pA(3′,5′)p] (ML RR-CDA) and 10 μM or 50 μM 2′-O-propargyl-cyclic-[A(2′,5′)pA(3′,5′)p] (ML-propargyl-CDA), or 50 μM Rp, Rp dithio cyclic [A(2′,5′)pA(3′,5′)p] (ML RR-CDA) after a 30 min pre-incubation with 10 μM 2′-O-propargyl-cyclic-[A(2′,5′)pA(3′,5′)p] (ML-propargyl-CDA). After 30 minutes, cells were washed and plated in 96-well dish in RPMI media containing 10% FBS, and incubated at 37° C. with 5% CO2. Cell culture supernatants from each sample were collected after 16 hr incubation, and 20 μL of the cell culture supernatants was added to 180 μL QUANTI-Blue reagent (Invivogen) and incubated for 5 minutes to evaluate type I interferon protein levels. Readings at Absorbance 655 nm were measured with a Versa Max kinetic spectrophotometer ([…]).

T1 sequence (Q86WV6 whole entry R71H/G230A/H232R/R293Q): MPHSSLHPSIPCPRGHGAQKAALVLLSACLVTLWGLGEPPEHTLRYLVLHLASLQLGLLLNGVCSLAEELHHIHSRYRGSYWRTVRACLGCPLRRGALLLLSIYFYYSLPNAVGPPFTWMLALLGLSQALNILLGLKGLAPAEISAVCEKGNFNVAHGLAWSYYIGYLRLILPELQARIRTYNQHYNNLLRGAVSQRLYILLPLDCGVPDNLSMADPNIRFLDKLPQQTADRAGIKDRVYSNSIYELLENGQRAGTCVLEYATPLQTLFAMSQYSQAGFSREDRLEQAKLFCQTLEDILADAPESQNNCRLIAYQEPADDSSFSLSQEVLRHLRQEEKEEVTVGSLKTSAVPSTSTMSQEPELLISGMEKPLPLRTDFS

C#CCO[C@@H]1[C@@H]2OP(=O)(O)OC[C@H]3O[C@@H](n4cnc5c(N)ncnc54)[C@H](OP(=O)(O)OC[C@H]2O[C@H]1n1cnc2c(N)ncnc21)[C@@H]3O [ML-propargyl-CDA, 2′-O-propargyl-cyclic-A(2′,5′)pA(3′,5′)p]
inhibition of induction of type I IFN by ML RR-CDA (THP1-Blue ISG cells, 10 μM or 50 μM antagonist added simultaneously with 50 μM ML RR-CDA, FIG. 7A): significantly inhibited
inhibition of induction of type I interferon by ML RR-CDA (THP1-Blue ISG cells, 30 min pre-incubation with 10 μM antagonist, then 50 μM ML RR-CDA, FIG. 7B): inhibits
functional character at human STING (concluded from reduction of ML RR-CDA-induced type I IFN production in THP1-Blue ISG cells): antagonist of human STING
